The subject of one data set is MIAPaCa2. Description: Cell viability assay (CellTiter Glo), MIAPaCa2. In kind it is cell-based. The following applies: Homo sapiens, MIA PaCa-2, 72 h incubation, mean of independent triplicate experiments, read-out: In vitro anti-proliferative activity IC50, MIAPaCa2. The procedure: (§1) The antiproliferative activity of compound I as well as its newly synthesised analogues (5a–i) was evaluated in vitro against the three human breast cancer cell lines MDA-MB-231 (TNBC), T47D (ER^+, HER^−), and BT474 (ER^+, HER^+) as well as a human pancreatic cancer cell line MIAPaCa2. The seeding of the corresponding cell lines started one day before incubation, which lasted for 72 h with the different concentrations of the tested compounds. CellTiter Glo reagent (25 μL) was added to the cell plate. The luminescence was analysed after 10 min using a PerkinElmer Envision instrument. The test compounds were used at ten different triplicate concentrations in half log increments up to 100 μM.
On the technique in general: ATP-based viability assays read luminescence as a measure of living cells.

A short description of data set [1]: Turbidimetric aqueous solubility. In kind it is physicochemical. The settings on record: 37 °C, 2 h. The procedure: Both the estimated precipitation range (lower and upper bound) and a mid-range value were measured. Nicardipine and pyrene were used as control compounds.
The test compound was diluted in buffer to give a range of concentrations (1, 3, 10, 30, and 100 μM; final DMSO concentration 1%) and incubated at 37 °C for 2 hr.
The test compound (10 mM in DMSO) was serially diluted to give solutions of 0.1, 0.3, 1, and 3 mM in DMSO. Each test compound concentration was then further diluted 1 to 100 in buffer (typically 0.01 M phosphate buffered saline pH 7.4) so that the final DMSO concentration was 1%, and the final test compound concentrations were 1, 3, 10, 30, and 100 μM. The experiment was performed at 37 °C and each concentration was incubated in 7 replicate wells. The plates were incubated for 2 h at 37 °C before the absorbance was measured at 620 nm. Nicardipine and pyrene were included as control compounds. The solubility of nicardipine is pH dependent whereas the solubility of pyrene is pH independent.
An estimated precipitation range (lower and upper bound) and a calculated mid-range value were returned, along with any relevant comments, in the form of an Excel spreadsheet.

Data set [2] deals with MDA-MB-231, T47D, BT474, and MIAPaCa2. Description: Cell viability assay, statements across the four cell lines. The settings on record: for Anti-proliferative activity (in words) across the four cell lines: three human breast and one pancreatic cancer cell line, up to 100 μM. In kind it is cell-based, human. The procedure: as §1
The next data set has as its target hERG potassium channel (Homo sapiens, UniProt Q12809). The data set is described as follows: hERG channel inhibition (IonWorks automated patch clamp, CHO-hERG cells). A general note: hERG is a cardiac potassium channel; its block is linked to QT prolongation.
Data set [3] in a line: Microsomal metabolic stability. The procedure:
Half-life (t1/2) values were measured at five time points.
Intrinsic clearance values (CLint) with standard error and t1⁄2 values were measured.
The final incubation volume was 50 μL. A minus cofactor control incubation was included for each compound tested where 0.1 M phosphate buffer pH 7.4 was added instead of NADPH (minus NADPH). Two control compounds were included with each species. All incubations were performed singularly for each test compound.
The reactions were stopped by transferring 20 μL of incubate to 60 μL methanol at the appropriate time points. The termination plates were centrifuged at 2500 rpm for 20 min at 4 °C to precipitate the protein.
Following protein precipitation, the sample supernatants were combined in cassettes of up to 4 compounds, the internal standard was added, and samples were analysed using Cyprotex generic LC-MS/MS conditions.
From a plot of ln peak area ratio (compound peak area/internal standard peak area) against time, the gradient of the line was determined.

Another data set relates to BT474. Description: Cell viability assay (CellTiter Glo), BT474. In kind it is cell-based, human. The following applies: 72 h incubation, mean of independent triplicate experiments, read-out: In vitro anti-proliferative activity IC50, BT474 ER+ PR+/- HER+. The procedure:
as §1

The subject of another data set is MDA-MB-231. Description: Cell viability assay (CellTiter Glo), MDA-MB-231. In kind it is cell-based. The settings on record: Homo sapiens, 72 h incubation, mean of independent triplicate experiments, read-out: In vitro anti-proliferative activity IC50, MDA-MB-231 ER- PR- HER-. Here is the method: as §1
Another data set deals with T47D. Description: Cell viability assay (CellTiter Glo), T47D. The following applies: 72 h incubation, mean of independent triplicate experiments, read-out: In vitro anti-proliferative activity IC50, T47D ER+ PR+/- HER-. In kind it is cell-based, human. Here is the method: as §1
On the set-up of data set [4]: method as in PMID 19610651, PMID 24780592. The settings on record: cited from earlier work.
[5] abbreviates: buffered aqueous solution (PBS pH 7.4, 1% DMSO).

Counter-ions that a name gives are not always drawn. Like-named read-outs stand apart in the source and are kept apart here.

Chain of hERG potassium channel (Q12809 whole entry): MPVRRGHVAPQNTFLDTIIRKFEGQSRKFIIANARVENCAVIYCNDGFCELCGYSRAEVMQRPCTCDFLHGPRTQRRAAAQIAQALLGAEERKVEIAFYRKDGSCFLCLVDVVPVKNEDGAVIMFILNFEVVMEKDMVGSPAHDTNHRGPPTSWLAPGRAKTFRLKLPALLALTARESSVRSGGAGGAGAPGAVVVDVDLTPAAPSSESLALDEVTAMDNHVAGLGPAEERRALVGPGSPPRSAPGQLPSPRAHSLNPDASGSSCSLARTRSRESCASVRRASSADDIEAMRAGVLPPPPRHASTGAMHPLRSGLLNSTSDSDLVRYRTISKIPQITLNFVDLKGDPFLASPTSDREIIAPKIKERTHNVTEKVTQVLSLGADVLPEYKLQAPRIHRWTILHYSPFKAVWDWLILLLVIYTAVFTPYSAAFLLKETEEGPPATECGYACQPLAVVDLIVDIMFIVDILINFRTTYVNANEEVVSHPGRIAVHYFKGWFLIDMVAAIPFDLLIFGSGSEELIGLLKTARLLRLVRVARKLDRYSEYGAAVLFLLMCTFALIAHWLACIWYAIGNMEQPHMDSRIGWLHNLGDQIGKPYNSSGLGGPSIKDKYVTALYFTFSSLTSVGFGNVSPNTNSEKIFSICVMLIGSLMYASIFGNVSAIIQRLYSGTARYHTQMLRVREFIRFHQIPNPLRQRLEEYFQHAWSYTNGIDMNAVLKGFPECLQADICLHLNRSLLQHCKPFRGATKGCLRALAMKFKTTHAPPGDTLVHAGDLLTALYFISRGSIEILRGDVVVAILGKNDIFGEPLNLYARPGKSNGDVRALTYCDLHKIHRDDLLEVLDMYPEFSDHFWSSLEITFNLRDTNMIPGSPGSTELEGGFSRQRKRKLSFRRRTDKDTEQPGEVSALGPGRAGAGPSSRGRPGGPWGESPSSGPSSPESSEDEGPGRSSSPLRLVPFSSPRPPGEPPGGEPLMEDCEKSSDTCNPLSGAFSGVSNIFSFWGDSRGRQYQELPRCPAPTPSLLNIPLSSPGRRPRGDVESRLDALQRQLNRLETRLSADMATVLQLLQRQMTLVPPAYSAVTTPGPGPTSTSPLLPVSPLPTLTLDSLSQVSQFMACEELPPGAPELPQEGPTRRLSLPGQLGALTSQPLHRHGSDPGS
Protocol for hERG potassium channel: Mammalian cells expressing the hERG potassium channel were dispensed into 384-well planar arrays and hERG tail-currents measured by whole-cell voltage-clamping. A range of concentrations of the test compound was then added to the cells and a second recording of the hERG current was made. […] IC50 is delivered, standard error (SE IC50), and n (number of data points used to calculate IC50) for the test compound. The experiments were performed on an Ion Works TM automated patch clamp instrument (Molecular Devices LLC (San Jose, California, United States)), which simultaneously performs electrophysiology measurements for 48 single cells in a specialised 384-well plate (PatchPlateTM(manufacturer, city, state if USA or Canada, country)). All cell suspensions, buffers, and test compound solutions were at room temperature during the experiment.
The cells used were Chinese hamster ovary (CHO) cells stably transfected with hERG (cell-line obtained from Cytomyx, UK). A single-cell suspension was prepared in extracellular solution (Dulbecco’s phosphate buffered saline with calcium and magnesium pH 7.2) and aliquots added automatically to each well of a Patch Plate TM. The cells were then positioned over a small hole at the bottom of each well by applying a vacuum beneath the plate to form an electrical seal. The vacuum was applied through a single compartment common to all wells which was filled with intracellular solution (buffered to pH 7.2 with HEPES). The resistance of each seal was measured via a common ground-electrode in the intracellular compartment and individual electrodes placed into each of the upper wells.
Electrical access to the cell was then achieved by circulating a perforating agent, amphotericin B, underneath the PatchPlateTM. The pre-compound hERG current was then measured. An electrode was positioned in the extracellular compartment and a holding potential of −80 mV applied for 15 s. The hERG channels were then activated by applying a depolarising step to +40 mV for 5 s and then clamped at −50 mV for 4 s to elicit the hERG tail current, before returning to −80 mV for 0.3 s.
The Ion Works TM instrument automatically adds test compound dilutions to the upper wells of the PatchPlateTM. The test compound was left in contact with the cells for 300 s before recording currents using the same voltage-step protocol as in the pre-compound scan.
Each concentration was tested in 4 replicate wells on the PatchPlateTM (maximum of 24 data points). Filters were applied to ensure only acceptable cells were used to assess hERG inhibition.
For each replicate, the hERG response was calculated using the following equation:% hERG response = [Post-compound current (nA)/Pre-compound current (nA)] × 100(5)

Usually half-life stands for the time needed for the level to fall by half in the phase considered. Read a high half-life as slow decline. As a reminder, the microsomal CLint is a measure of how fast metabolising enzymes remove a compound, apart from limits set by blood flow. A lower microsomal CLint goes with slow turnover. As for `CC(C)(C)c1ccc(C(CN)c2ccc(C(C)(C)C)cc2)cc1.Cl` [5f, 2,2-Bis(4-tert-butylphenyl)ethan-1-aminium chloride], the IC50 in the data set on MIAPaCa2 is 5.28 µM; in [2] (Homo sapiens, MDA-MB-231, T47D, BT474, and MIAPaCa2, read-out: IC50 values range across cell lines), 4.59 to 5.28 µM; on hERG potassium channel, greater than 25 µM; with BT474, 4.7 µM; in the data set on BT474 (Homo sapiens, BT-474, 72 h) it was 4.59 µM; in the data set on MDA-MB-231, 5.06 µM. In addition, the IC50 with T47D came to 4.59 µM; in the data set on T47D (Homo sapiens, T47D, 72 h) it was 4.7 µM. Besides, the “Estimated Precipitation Range, Calculated Mid-Range” value in data set [1] (setting [5]) is on record as 3.75 µM. In addition, the “Estimated Precipitation Range, Lower Bound” value in data set [1] (setting [5]) is recorded as 1 µM. The “Estimated Precipitation Range, Upper Bound” value in [1] (setting [5]) is 6.5 µM. For the same compound, the “Aqueous solubility (in words)” value in data set [1] (turbidimetric) was “relatively reduced solubility comparable to pyrene”. Besides, the “Anti-proliferative activity (in words) across the four cell lines” value in [2] was “low micromolar antiproliferative activity”. In addition, in [3] (human liver microsomes, 0 min), the “Compound Remaining (% of 0 min), 0 min” value is 100 % of 0 min. Also, the “Compound Remaining (% of 0 min), 5 min” value in [3] (human liver microsomes, 5 min) is given as 97.2 % of 0 min. Besides, the “Compound Remaining (% of 0 min), 15 min” value in [3] (human liver microsomes, 15 min) was 92.2 % of 0 min. The “Compound Remaining (% of 0 min), 30 min” value in data set [3] (human liver microsomes, 30 min) was 88.0 % of 0 min. Also, the “Compound Remaining (% of 0 min), 45 min” value in data set [3] (human liver microsomes, 45 min) is 80.7 % of 0 min. In addition, the “Compound Remaining (% of 0 min), Control” value in [3] (human liver microsomes, minus NADPH control, 45 min) is recorded as 88.0 % of 0 min. The half-life at 3 μM in data set [3] (human, microsomes, pH 7.4) is 2.47 h. This compound showed a microsomal CLint at 3 μM in [3] (human, pooled liver microsomes, pH 7.4) of 9.34 µL/min/mg.

In the case of `CN(C)CCN(Cc1ccc(Cl)cc1)c1ccccn1` [C4, chloropyramine hydrochloride, reference compound], the IC50 is greater than 100 µM in the data set on MIAPaCa2; greater than 100 µM in the data set with BT474 (Homo sapiens, BT-474, 72 h); 99 µM in the data set on MDA-MB-231; greater than 100 µM in the data set on T47D (Homo sapiens, T47D, 72 h). For the same compound, the “Anti-proliferative activity (in words) across the four cell lines” value in data set [2] is reported as “did not show any significant anti-proliferative activity up to a concentration of 100 μM”. The “Concentration at which anticancer activity is displayed” value in [4] is greater than 100 µM.

Values taken from publication PMC7435868, “Structure-Based Virtual Screening, Synthesis and Biological Evaluation of Potential FAK-FAT Domain Inhibitors for Treatment of Metastatic Cancer” (Molecules, 2020).
